Laboratory results taken from ChEMBL document CHEMBL1201862, “PubChem BioAssay data set” (2004).
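All cell lines were grown in 96-well plates and treated with compound for 48 hours. GI50 is the concentration that inhibits growth by half.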 The source made the active and inactive calls. Rule as the data show it: active = GI50 up to about 1.1 µM and inactive = higher.

Experiments:
Assay in all cases: growth of human tumour cells (NCI), 48 h
T47D = tested on: T47D
SK-OV-3 = tested on: SK-OV-3
SF-295 = tested on: SF-295
HL-60 = tested on: HL-60
SK-MEL-28 = tested on: SK-MEL-28
SF-539 = tested on: SF-539
ACHN = tested on: ACHN
OVCAR-4 = tested on: OVCAR-4
IGROV-1 = tested on: IGROV-1
HT-29 = tested on: HT-29
MDA-MB-435 = tested on: MDA-MB-435
PC-3 = tested on: PC-3
UACC-62 = tested on: UACC-62
UACC-257 = tested on: UACC-257
SN12C = tested on: SN12C
RXF 393 = tested on: RXF 393
K562 = tested on: K562
HCC 2998 = tested on: HCC 2998

Measured: GI50

Oc1ccc2ccccc2c1Cc1c(O)ccc2ccccc12
inactive: T47D 20.3 µM | SK-OV-3 17.5 µM | SF-295 16.7 µM | HL-60 17.8 µM | SK-MEL-28 21.6 µM | SF-539 21.4 µM | ACHN 17.3 µM | OVCAR-4 13.1 µM | IGROV-1 4.04 µM | HT-29 22.1 µM | MDA-MB-435 11 µM | PC-3 17.5 µM | UACC-62 14 µM | UACC-257 19.5 µM | SN12C 16.2 µM | RXF 393 16 µM | K562 8.83 µM | HCC 2998 17.4 µM

CCOC(=O)O/C(=C\c1ccc(OC)cc1)c1c(OC(=O)OCC)n(C(=O)OCC)c2ccccc12
inactive: T47D 57.7 µM | SK-OV-3 41.5 µM | SF-295 28.4 µM | HL-60 > 100 µM | SK-MEL-28 19.6 µM | SF-539 34.8 µM | ACHN 29.1 µM | OVCAR-4 32.4 µM | IGROV-1 35.7 µM | HT-29 47.3 µM | MDA-MB-435 24.9 µM | PC-3 29.2 µM | UACC-62 42.7 µM | UACC-257 34.5 µM | SN12C 31.6 µM | RXF 393 19.8 µM | K562 2.77 µM

COC(OC)(c1ccccc1)C(Br)Br
inactive: T47D 39.7 µM | SK-OV-3 > 100 µM | SF-295 > 100 µM | HL-60 23.6 µM | SK-MEL-28 > 100 µM | SF-539 > 10 µM | ACHN > 100 µM | IGROV-1 50.8 µM | HT-29 57.4 µM | MDA-MB-435 20.2 µM | PC-3 > 100 µM | UACC-62 55.1 µM | UACC-257 > 100 µM | SN12C > 100 µM | K562 13.9 µM | HCC 2998 > 100 µM

NCCN/C(=N\c1ccccc1)Nc1ccccc1
inactive: T47D > 10 µM | SK-OV-3 > 100 µM | SF-295 > 100 µM | HL-60 > 100 µM | SK-MEL-28 > 100 µM | SF-539 70.8 µM | OVCAR-4 > 100 µM | IGROV-1 > 100 µM | HT-29 > 100 µM | MDA-MB-435 > 100 µM | PC-3 55.6 µM | UACC-62 > 100 µM | UACC-257 > 100 µM | SN12C > 100 µM | RXF 393 24.3 µM | K562 > 100 µM | HCC 2998 > 100 µM

[N-]=[N+]=NC[C@H]1OCO[C@H](CN=[N+]=[N-])[C@H]2OCCOCCOc3ccccc3OCCOCCO[C@@H]21
inactive: T47D > 100 µM | SK-OV-3 > 100 µM | SF-295 > 100 µM | HL-60 > 100 µM | SK-MEL-28 > 100 µM | SF-539 > 100 µM | OVCAR-4 > 100 µM | IGROV-1 > 100 µM | HT-29 > 100 µM | MDA-MB-435 > 100 µM | PC-3 > 100 µM | UACC-62 > 100 µM | UACC-257 > 100 µM | SN12C > 100 µM | RXF 393 > 100 µM | K562 > 100 µM | HCC 2998 > 100 µM

CC(NC(=O)C(N)CC(=O)O)NC(=O)C1CCC1 (stereo not given)
inactive: T47D > 100 µM | SK-OV-3 28.2 µM | SK-MEL-28 > 100 µM | SF-539 > 100 µM | ACHN > 100 µM | OVCAR-4 > 100 µM | IGROV-1 > 10 µM | HT-29 > 100 µM | MDA-MB-435 > 100 µM | PC-3 > 100 µM | UACC-62 > 100 µM | UACC-257 > 100 µM | SN12C > 100 µM | RXF 393 > 100 µM | K562 > 100 µM

C=C(Br)CN(C#N)CC(=C)Br
inactive: T47D > 100 µM | SK-OV-3 > 100 µM | SF-295 > 100 µM | HL-60 8.85 µM | SK-MEL-28 > 100 µM | SF-539 > 100 µM | ACHN > 100 µM | OVCAR-4 > 100 µM | IGROV-1 > 100 µM | HT-29 > 100 µM | MDA-MB-435 > 100 µM | PC-3 > 100 µM | UACC-62 > 100 µM | UACC-257 > 100 µM | SN12C > 100 µM | RXF 393 > 100 µM | K562 > 100 µM | HCC 2998 > 100 µM

Cn1c2ccccc2n2c(=O)c3cc([N+](=O)[O-])ccc3c(C#N)c12
inactive: T47D > 100 µM | SK-OV-3 > 100 µM | SF-295 83.2 µM | HL-60 > 100 µM | SK-MEL-28 > 100 µM | SF-539 50.4 µM | ACHN 75.3 µM | OVCAR-4 65.6 µM | IGROV-1 > 100 µM | HT-29 > 100 µM | MDA-MB-435 > 100 µM | PC-3 > 100 µM | UACC-62 > 100 µM | UACC-257 > 100 µM | RXF 393 > 100 µM | K562 > 100 µM | HCC 2998 > 100 µM
